Experimental data from the NIST ThermoML archive (doi:10.1021/je060271a).
Numbers after ± are expanded uncertainties.

Settings: 343.15 K, Liquid, Vibrating tube method

Compound: CCCCCCC(=O)OCC(COC(=O)CCCCCC)(COC(=O)CCCCCC)COC(=O)CCCCCC [pentaerythritol tetraheptanoate]
- mass density (2184.4 kPa): 942.3 ± 1.1 kg/m3
- mass density (2195 kPa): 942.3 ± 1.1 kg/m3
- mass density (2206.1 kPa): 942.2 ± 1.1 kg/m3
- mass density (2216.5 kPa): 942.3 ± 1.1 kg/m3
- mass density (2228.9 kPa): 942.4 ± 1.2 kg/m3
- mass density (2239.4 kPa): 942.3 ± 1.1 kg/m3
- mass density (2249.8 kPa): 942.2 ± 1.1 kg/m3
- mass density (2260.8 kPa): 942.3 ± 1.2 kg/m3
- mass density (2273.8 kPa): 942.3 ± 1.1 kg/m3
- mass density (2284.7 kPa): 942.3 ± 1.1 kg/m3
- mass density (2295.3 kPa): 942.4 ± 1.1 kg/m3
- mass density (2308.5 kPa): 942.3 ± 1.1 kg/m3
- mass density (2319.6 kPa): 942.4 ± 1.2 kg/m3
- mass density (2330.5 kPa): 942.4 ± 1.1 kg/m3
- mass density (2344.6 kPa): 942.3 ± 1.1 kg/m3
- mass density (2356.7 kPa): 942.4 ± 1.2 kg/m3
- mass density (2368 kPa): 942.5 ± 1.2 kg/m3
- mass density (2379.5 kPa): 942.3 ± 1.2 kg/m3
- mass density (2390.7 kPa): 942.3 ± 1.2 kg/m3
- mass density (2405 kPa): 942.2 ± 1.1 kg/m3
- mass density (2416.9 kPa): 942.4 ± 1.1 kg/m3
- mass density (2428.7 kPa): 942.4 ± 1.1 kg/m3
- mass density (2442.8 kPa): 942.5 ± 1.2 kg/m3
- mass density (2454.7 kPa): 942.4 ± 1.2 kg/m3
- mass density (2466.9 kPa): 942.5 ± 1.1 kg/m3
- mass density (2481.6 kPa): 942.5 ± 1.1 kg/m3
- mass density (2493.9 kPa): 942.5 ± 1.2 kg/m3
- mass density (2506.3 kPa): 942.7 ± 1.2 kg/m3
- mass density (2518.9 kPa): 942.4 ± 1.2 kg/m3
- mass density (2534.2 kPa): 942.4 ± 1.2 kg/m3
- mass density (2546.7 kPa): 942.6 ± 1.1 kg/m3
- mass density (2559.3 kPa): 942.5 ± 1.2 kg/m3
- mass density (2574.1 kPa): 942.5 ± 1.2 kg/m3
- mass density (2587.4 kPa): 942.5 ± 1.2 kg/m3
- mass density (2600.6 kPa): 942.5 ± 1.1 kg/m3
- mass density (2616.2 kPa): 942.5 ± 1.1 kg/m3
- mass density (2629.4 kPa): 942.6 ± 1.2 kg/m3
- mass density (2642.8 kPa): 942.7 ± 1.2 kg/m3
- mass density (2656.5 kPa): 942.6 ± 1.1 kg/m3
- mass density (2672.6 kPa): 942.7 ± 1.2 kg/m3
- mass density (2686.5 kPa): 942.7 ± 1.2 kg/m3
- mass density (2700.9 kPa): 942.7 ± 1.2 kg/m3
- mass density (2714.7 kPa): 942.6 ± 1.2 kg/m3
- mass density (2731.4 kPa): 942.6 ± 1.2 kg/m3
- mass density (2745.6 kPa): 942.6 ± 1.1 kg/m3
- mass density (2759.8 kPa): 942.7 ± 1.2 kg/m3
- mass density (2777 kPa): 942.7 ± 1.2 kg/m3
- mass density (2791.7 kPa): 942.6 ± 1.2 kg/m3
- mass density (2806.1 kPa): 942.7 ± 1.2 kg/m3
- mass density (2823.8 kPa): 942.7 ± 1.2 kg/m3
- mass density (2838.2 kPa): 942.7 ± 1.2 kg/m3
- mass density (2853.3 kPa): 942.7 ± 1.2 kg/m3
- mass density (2871.1 kPa): 942.8 ± 1.2 kg/m3
- mass density (2886.2 kPa): 942.8 ± 1.2 kg/m3
- mass density (2902 kPa): 942.8 ± 1.2 kg/m3
- mass density (2917.3 kPa): 942.9 ± 1.2 kg/m3
- mass density (2935.8 kPa): 942.8 ± 1.2 kg/m3
- mass density (2951.4 kPa): 942.8 ± 1.2 kg/m3
- mass density (2967.4 kPa): 942.8 ± 1.2 kg/m3
- mass density (2986.5 kPa): 942.9 ± 1.2 kg/m3
- mass density (3002.7 kPa): 942.8 ± 1.2 kg/m3
- mass density (3018.9 kPa): 942.9 ± 1.2 kg/m3
- mass density (3038.1 kPa): 942.9 ± 1.2 kg/m3
- mass density (3054.6 kPa): 942.8 ± 1.2 kg/m3
- mass density (3071.2 kPa): 943 ± 1.2 kg/m3
- mass density (3088.2 kPa): 943 ± 1.2 kg/m3
- mass density (3108.3 kPa): 943 ± 1.2 kg/m3
- mass density (3125.5 kPa): 942.9 ± 1.2 kg/m3
- mass density (3142.7 kPa): 943 ± 1.2 kg/m3
- mass density (3163.3 kPa): 942.9 ± 1.2 kg/m3
- mass density (3181 kPa): 943 ± 1.2 kg/m3
- mass density (3198.1 kPa): 943 ± 1.2 kg/m3
- mass density (3219.1 kPa): 943 ± 1.2 kg/m3
- mass density (3237.1 kPa): 943 ± 1.2 kg/m3
- mass density (3254.6 kPa): 943 ± 1.2 kg/m3
- mass density (3276.5 kPa): 943.1 ± 1.2 kg/m3
- mass density (3294.7 kPa): 943.2 ± 1.2 kg/m3
- mass density (3313 kPa): 943.2 ± 1.2 kg/m3
- mass density (3335.1 kPa): 943.2 ± 1.2 kg/m3
- mass density (3354.3 kPa): 943.1 ± 1.2 kg/m3
- mass density (3373.4 kPa): 943.2 ± 1.2 kg/m3
- mass density (3392.3 kPa): 943 ± 1.2 kg/m3
- mass density (3411.7 kPa): 943.3 ± 1.2 kg/m3
- mass density (3435.1 kPa): 943.2 ± 1.2 kg/m3
- mass density (3454.3 kPa): 943.2 ± 1.2 kg/m3
- mass density (3473.9 kPa): 943.2 ± 1.2 kg/m3
- mass density (3497.6 kPa): 943.2 ± 1.2 kg/m3
- mass density (3517.4 kPa): 943.2 ± 1.2 kg/m3
- mass density (3537.3 kPa): 943.3 ± 1.2 kg/m3
- mass density (3561.7 kPa): 943.3 ± 1.2 kg/m3
- mass density (3582.2 kPa): 943.4 ± 1.2 kg/m3
- mass density (3603.3 kPa): 943.2 ± 1.2 kg/m3
- mass density (3625.8 kPa): 943.3 ± 1.2 kg/m3
- mass density (3646.8 kPa): 943.3 ± 1.2 kg/m3
- mass density (3672.1 kPa): 943.3 ± 1.2 kg/m3
- mass density (3693.4 kPa): 943.5 ± 1.2 kg/m3
- mass density (3715.2 kPa): 943.4 ± 1.2 kg/m3
- mass density (3736.7 kPa): 943.4 ± 1.2 kg/m3
- mass density (3763.2 kPa): 943.5 ± 1.2 kg/m3
- mass density (3785.2 kPa): 943.4 ± 1.2 kg/m3
- mass density (3807.8 kPa): 943.5 ± 1.2 kg/m3
- mass density (3834.6 kPa): 943.5 ± 1.2 kg/m3
- mass density (3857.8 kPa): 943.4 ± 1.2 kg/m3
- mass density (3885.7 kPa): 943.5 ± 1.2 kg/m3
- mass density (3909.5 kPa): 943.5 ± 1.2 kg/m3
- mass density (3934.6 kPa): 943.5 ± 1.2 kg/m3
- mass density (3958.1 kPa): 943.7 ± 1.2 kg/m3
- mass density (3981.8 kPa): 943.5 ± 1.2 kg/m3
- mass density (4005.9 kPa): 943.6 ± 1.2 kg/m3
- mass density (4035 kPa): 943.6 ± 1.2 kg/m3
- mass density (4059.1 kPa): 943.7 ± 1.2 kg/m3
- mass density (4088.5 kPa): 943.7 ± 1.2 kg/m3
